According to patent publication US20110165578A1, “METHODS FOR DETECTING AND QUANTIFYING OVERSULFATED GLYCOSAMINOGLYCANS” (priority 2008, published 2011):

Legend:
Taq polymerase = target: T1, Taq polymerase (Thermus aquaticus, UniProt P19821); assay: Taq polymerase inhibition by Taqman real time PCR (gene amplification, CT values); format: biochemical; conditions: for Taq polymerase activity / 18S amplification: spiked into heparin and treated with heparinase; for gene amplification (polymerase activity) after treatment with heparinase: heparinase 2 hours at room temperature, OS-CS 30 ng, heparin 25 mU of lot C1 (FIG. 2B); for 18S amplification: same conditions
T1 construct: purchased ABI (Applied Biosystems)
Method: Heparinase treatment: Heparin was treated with heparinase I (1:1 unit:unit reaction unless otherwise noted) for 2 hours at 25° C. in a buffer containing 4 mM Tris-HCl pH 7.5, 0.8 mM CaCl, 10 mM NaCl, and 20 U of RNase inhibitor (ABI). After treatment, the heparin was diluted to a final volume of 50 μl and serial dilutions were prepared in DEPC water as specified. Where indicated, other GAGs and oversulfated GAGs (dermatan sulfate, chondroitin sulfate, and heparan sulfate) were treated with heparinase under the same conditions as described above.
Screening Assay: cDNA was generated using total RNA from MDA-MB-231 human breast cancer cell line extracted using Trizol reagent (Invitrogen, Carlsbad, Calif.) as per manufacturer's instructions. For each cDNA reaction 1 μg total RNA was reverse transcribed using High Capacity cDNA Reverse Transcription Kit (Applied Biosystems, Foster City Calif.) in a volume of 20 μl and further diluted in DEPC water to 100 μl final volume. The concentration of cDNA was determined using Quant-iT OliGreen ssDNA Reagent (Invitrogen). For each Taqman® reaction, 25 ng of cDNA in a 2.5 μl volume were mixed with 2.5 μl of each dilution of heparinase-treated heparin or hypersulfated GAGs and then subjected to real time PCR using Taqman® Gene Expression assay for human 18S rRNA (20×) and 2× Universal PCR master mix (ABI) in a 25 μl reaction. Amplification levels of 18S are expressed as CT values. CT values represent the cycle at which amplification of a target gene is first detected. The amplification was analyzed using manual settings with a threshold value of 0.1 and the SDS2.3 software from ABI. […] Quantification of the oversulfated GAGs was performed by establishing a cutoff at the minimum concentration of synthetic OS-CS that completely blocks Taq polymerase (500 pg) and tittering all the samples until the activity of Taq polymerase was restored.
Real time-PCR (Taqman® PCR) is a highly sensitive method for detecting changes in gene expression. Gene amplification depends on a thermostable DNA polymerase from Thermus aquaticus (Taq pol). […] Shown in FIG. 1 are the levels of 18S amplification from 25 ng cDNA derived from MDA-MB-231 cells as determined by Taqman® PCR. While the 18S rRNA is used here, any RNA or DNA template is suitable. Addition of progressively higher amounts of heparin induces a corresponding reduction in Taq polymerase activity that can be monitored by assessing 18S cDNA amplification. […] Treatment of heparin with 1 unit of heparinase for 2 hrs at 25° C. overcomes the blocking activity of up to 50 mU of heparin (FIG. 1A).
To compare the use of different template sequences to measure the inhibition of Taq polymerase activity by oversulfated GAGs, heparin preparations were processed and RNA was isolated as detailed in Example 1, except that cDNAs were generated and amplified from the Actin B and GAPDH RNA sequences, in addition to the 18S rRNA.
Table 1 compares the effects of different oversulfated GAGs on the amplification of 18S, Actin B, and GAPDH sequences by Taq polymerase, as shown by mean cycle thresholds (CT) of amplification detection. The CT value indicating no inhibition of Taq polymerase activity varied slightly by template, but was maximally <20. […] Addition of progressively higher amounts of over sulfated chondroitin sulfate (OS-CS), oversulfated dermatan sulfate (OS-DS), and oversulfated heparan sulfate (OS-HS) to cDNA induced a corresponding reduction in Taq polymerase amplification of 18S, Actin B, and GAPDH.

porcine model = conditions: 5 mg/kg i.v. in bolus; cited from earlier work
[1] = any concentration tested (0-125 ng)

T1 sequence (P19821 whole entry): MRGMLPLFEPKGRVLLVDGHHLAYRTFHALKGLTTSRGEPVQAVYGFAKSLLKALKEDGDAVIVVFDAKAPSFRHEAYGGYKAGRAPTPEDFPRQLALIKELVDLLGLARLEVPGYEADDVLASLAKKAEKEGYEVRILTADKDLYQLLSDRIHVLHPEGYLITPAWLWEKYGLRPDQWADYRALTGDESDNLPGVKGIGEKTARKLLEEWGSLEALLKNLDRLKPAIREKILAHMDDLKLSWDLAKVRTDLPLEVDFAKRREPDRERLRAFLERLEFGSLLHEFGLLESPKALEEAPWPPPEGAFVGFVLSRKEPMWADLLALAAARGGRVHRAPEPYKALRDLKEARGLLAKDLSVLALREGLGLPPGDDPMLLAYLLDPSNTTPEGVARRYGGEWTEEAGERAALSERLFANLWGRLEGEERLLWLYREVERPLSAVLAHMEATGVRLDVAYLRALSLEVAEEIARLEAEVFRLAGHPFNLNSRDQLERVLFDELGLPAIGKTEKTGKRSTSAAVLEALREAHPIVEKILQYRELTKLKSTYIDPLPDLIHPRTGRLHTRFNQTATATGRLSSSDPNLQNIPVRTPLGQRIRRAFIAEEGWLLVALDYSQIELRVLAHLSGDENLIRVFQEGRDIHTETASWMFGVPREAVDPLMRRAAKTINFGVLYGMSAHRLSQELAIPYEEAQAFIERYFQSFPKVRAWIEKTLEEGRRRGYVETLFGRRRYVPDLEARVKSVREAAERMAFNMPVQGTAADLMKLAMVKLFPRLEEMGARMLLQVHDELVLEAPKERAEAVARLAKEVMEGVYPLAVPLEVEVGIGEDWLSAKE

Substance: Chondroitin sulfate E [CS-E]
- Taq polymerase activity (Taq polymerase; highest concentration tested (125 ng)): trace of inhibitory effect

Substance: heparin
- amount of heparin whose blocking activity is overcome by heparinase treatment (Taq polymerase; 1 unit of heparinase, 2 hrs at 25° C., 18S (FIG. 1A)): up to 50 mU
- gene amplification (polymerase activity) after treatment with heparinase (Taq polymerase): restores gene amplification

Substance: Chondroitin sulfate type A [CS-A]
- Taq polymerase activity (Taq polymerase; [1]): did not inhibit

Substance: oversulfated heparan sulfate [OS-HS]
- mean cycle threshold (CT) of amplification detection (Taq polymerase; 18S template, 0.3 ng): 14.49
- mean cycle threshold (CT) of amplification detection (Taq polymerase; 18S template, 0.9 ng): 26.00
- mean cycle threshold (CT) of amplification detection (Taq polymerase; 18S template, 2.7 ng): 40.00
- mean cycle threshold (CT) of amplification detection (Taq polymerase; 18S template, 8.3 ng): 40.00
- mean cycle threshold (CT) of amplification detection (Taq polymerase; 18S template, 25 ng): 40.00
- mean cycle threshold (CT) of amplification detection (Taq polymerase; Actin B template, 0.3 ng): 27.12
- mean cycle threshold (CT) of amplification detection (Taq polymerase; Actin B template, 0.9 ng): 40.00
- mean cycle threshold (CT) of amplification detection (Taq polymerase; Actin B template, 2.7 ng): 40.00
- mean cycle threshold (CT) of amplification detection (Taq polymerase; Actin B template, 8.3 ng): 40.00
- mean cycle threshold (CT) of amplification detection (Taq polymerase; GAPDH template, 0.3 ng): 25.98
- mean cycle threshold (CT) of amplification detection (Taq polymerase; GAPDH template, 0.9 ng): 40.00
- mean cycle threshold (CT) of amplification detection (Taq polymerase; GAPDH template, 2.7 ng): 40.00
- mean cycle threshold (CT) of amplification detection (Taq polymerase; GAPDH template, 8.3 ng): 40.00
- mean cycle threshold (CT) of amplification detection (Taq polymerase; GAPDH template, 25 ng): 40.00
- 18S amplification (Taq polymerase): significantly reduced

Substance: oversulfated chondroitin sulfate [OS-CS]
- amount that completely blocked Taq polymerase mediated 18S cDNA amplification (Taq polymerase; 18S template, 25 ng cDNA (FIG. 1C)): 500 pg
- mean cycle threshold (CT) of amplification detection (Taq polymerase; 18S template, 0.08 ng added to cDNA): 13.81
- mean cycle threshold (CT) of amplification detection (Taq polymerase; 18S template, 0.25 ng): 14.38
- mean cycle threshold (CT) of amplification detection (Taq polymerase; 18S template, 0.5 ng): 18.89
- mean cycle threshold (CT) of amplification detection (Taq polymerase; 18S template, 0.75 ng): 31.20
- mean cycle threshold (CT) of amplification detection (Taq polymerase; 18S template, 1 ng): 40.00
- mean cycle threshold (CT) of amplification detection (Taq polymerase; 18S template, 1.25 ng): 40.00
- mean cycle threshold (CT) of amplification detection (Taq polymerase; Actin B template, 0.08 ng): 18.48
- mean cycle threshold (CT) of amplification detection (Taq polymerase; Actin B template, 0.25 ng): 26.89
- mean cycle threshold (CT) of amplification detection (Taq polymerase; Actin B template, 0.5 ng): 38.84
- mean cycle threshold (CT) of amplification detection (Taq polymerase; Actin B template, 0.75 ng): 40.00
- mean cycle threshold (CT) of amplification detection (Taq polymerase; Actin B template, 1 ng): 40.00
- mean cycle threshold (CT) of amplification detection (Taq polymerase; Actin B template, 1.25 ng): 40.00
- mean cycle threshold (CT) of amplification detection (Taq polymerase; GAPDH template, 0.08 ng): 17.22
- mean cycle threshold (CT) of amplification detection (Taq polymerase; GAPDH template, 0.25 ng): 25.13
- mean cycle threshold (CT) of amplification detection (Taq polymerase; GAPDH template, 0.5 ng): 40.00
- mean cycle threshold (CT) of amplification detection (Taq polymerase; GAPDH template, 0.75 ng): 40.00
- mean cycle threshold (CT) of amplification detection (Taq polymerase; GAPDH template, 1 ng): 40.00
- mean cycle threshold (CT) of amplification detection (Taq polymerase; GAPDH template, 1.25 ng): 40.00
- limit of detection in heparin (Taq polymerase; calculated from 500 pg block and heparin potency 6.25 μg/U): 0.16 % (w/w)
- gene amplification (polymerase activity) after treatment with heparinase (Taq polymerase): not
- 18S amplification (Taq polymerase): significantly reduced
- reproduction of the clinical syndrome (adverse events) (porcine model): partially reproduce the clinical syndrome

Substance: Heparan sulfate [HS]
- mean cycle threshold (CT) of amplification detection (Taq polymerase; 18S template, 8.3 ng): 13.62
- mean cycle threshold (CT) of amplification detection (Taq polymerase; 18S template, 25 ng): 13.66
- mean cycle threshold (CT) of amplification detection (Taq polymerase; 18S template, 62.5 ng): 13.69
- mean cycle threshold (CT) of amplification detection (Taq polymerase; 18S template, 125 ng): 13.96
- mean cycle threshold (CT) of amplification detection (Taq polymerase; 18S template, 250 ng): 14.36
- mean cycle threshold (CT) of amplification detection (Taq polymerase; Actin B template, 25 ng): 18.36
- mean cycle threshold (CT) of amplification detection (Taq polymerase; GAPDH template, 8.3 ng): 17.68
- mean cycle threshold (CT) of amplification detection (Taq polymerase; GAPDH template, 25 ng): 18.37
- Taq polymerase amplification of any of the tested templates (18S, Actin B, GAPDH) (Taq polymerase; at comparable concentrations): did not inhibit
- Taq polymerase activity (Taq polymerase; [1]): did not inhibit

Substance: dermatan sulfate [DS]
- Taq polymerase activity (Taq polymerase; [1]): did not inhibit

Substance: oversulfated dermatan sulfate [OS-DS]
- mean cycle threshold (CT) of amplification detection (Taq polymerase; 18S template, 0.3 ng): 14.13
- mean cycle threshold (CT) of amplification detection (Taq polymerase; 18S template, 0.9 ng): 18.29
- mean cycle threshold (CT) of amplification detection (Taq polymerase; 18S template, 2.7 ng): 40.00
- mean cycle threshold (CT) of amplification detection (Taq polymerase; 18S template, 8.3 ng): 40.00
- mean cycle threshold (CT) of amplification detection (Taq polymerase; 18S template, 25 ng): 40.00
- mean cycle threshold (CT) of amplification detection (Taq polymerase; Actin B template, 0.3 ng): 25.45
- mean cycle threshold (CT) of amplification detection (Taq polymerase; Actin B template, 0.9 ng): 31.85
- mean cycle threshold (CT) of amplification detection (Taq polymerase; Actin B template, 2.7 ng): 40.00
- mean cycle threshold (CT) of amplification detection (Taq polymerase; Actin B template, 8.3 ng): 40.00
- mean cycle threshold (CT) of amplification detection (Taq polymerase; Actin B template, 25 ng): 40.00
- mean cycle threshold (CT) of amplification detection (Taq polymerase; GAPDH template, 0.3 ng): 24.76
- mean cycle threshold (CT) of amplification detection (Taq polymerase; GAPDH template, 0.9 ng): 39.12
- mean cycle threshold (CT) of amplification detection (Taq polymerase; GAPDH template, 2.7 ng): 40.00
- mean cycle threshold (CT) of amplification detection (Taq polymerase; GAPDH template, 8.3 ng): 40.00
- mean cycle threshold (CT) of amplification detection (Taq polymerase; GAPDH template, 25 ng): 40.00
- 18S amplification (Taq polymerase): significantly reduced
